{
  "source": "patent US5849259A",
  "about": "“3-,8-substituted deuteroporphyrin derivatives, pharmaceutical agents containing the latter and process for their production” (priority 1992, dated 1998)",
  "system": "DMBA-induced breast cancer",
  "assay": "Signal intensity change in tissues of rats with DMBA-induced breast cancer, Bruker Biospec 2.35 Tesla, MSVE",
  "format": "in vivo",
  "parameters": "key to enhancement, Tumor / enhancement, Liver / enhancement, Kidneys / enhancement, Muscle: signal intensity relative to an internal standard",
  "description": "b) On a Bruker Biospec nuclear spin tomograph (2.35 Tesla), the signal intensity change in various tissues of rats with a DMBA-induced breast cancer was studied after i.v. administration of 0.05 mmol/kg or 0.1 mmol of the compound of example 1c (20 mmol/l, pH 7.2; 37° C. in bidistilled water). The measurements took place with a multi slice variable echo sequence (MSVE). Imaging parameters: TR: 400 ms, TE: 25 ms, layer thickness: 4 mm, number of averages: 4/slice, matrix 256^2.\nAfter a preliminary image, 0.05 mmol/kg or 0.1 mmol/kg of the substance was administered and the signal intensity change (relative to an internal standard) was studied.\nThe ^1 H-NMR images of the DMBA-induced breast cancer after administration of 0.1 mmol/kg i.v. after 5 minutes or 3 or 24 hours p.i. are reproduced in FIG. 1.",
  "data": [
    {"substance": "N,N'-Bis[9-carboxylato-2,5,8-tris(carboxylatomethyl)-2,5,8-triazanonyl-carbamoyl]-mesoporphyrin-IX-13,17-diamide, digadolinium complex, disodium salt [Example 1c]", "values": [
      {"measurement": "signal intensity change, kidneys", "setting": "0.05 mmol/kg i.v.", "value": "stronger signal intensity change"},
      {"measurement": "signal intensity change, muscle", "setting": "0.05 or 0.1 mmol/kg i.v., up to 24 hours p.i.", "value": "only a slight change"},
      {"measurement": "enhancement, Kidneys", "setting": "1 min, 0.1 mmol/kg i.v.", "value": 1.16},
      {"measurement": "enhancement, Liver", "setting": "1 min, 0.1 mmol/kg i.v.", "value": 1.55},
      {"measurement": "enhancement, Muscle", "setting": "1 min, 0.1 mmol/kg i.v.", "value": 1.46},
      {"measurement": "enhancement, Tumor", "setting": "1 min, 0.1 mmol/kg i.v.", "value": 2.48},
      {"measurement": "enhancement, Kidneys", "setting": "5 min, 0.05 mmol/kg i.v.", "value": 2.57},
      {"measurement": "enhancement, Liver", "setting": "5 min, 0.05 mmol/kg i.v.", "value": 1.48},
      {"measurement": "enhancement, Muscle", "setting": "5 min, 0.05 mmol/kg i.v.", "value": 1.34},
      {"measurement": "enhancement, Tumor", "setting": "5 min, 0.05 mmol/kg i.v.", "value": 1.88},
      {"measurement": "signal intensity change, liver tissue and tumors", "setting": "5 minutes p.i., 0.05 or 0.1 mmol/kg i.v.", "value": "marked signal intensity increase"},
      {"measurement": "enhancement, Kidneys", "setting": "15 min, 0.05 mmol/kg i.v.", "value": 2.81},
      {"measurement": "enhancement, Liver", "setting": "15 min, 0.05 mmol/kg i.v.", "value": 1.29},
      {"measurement": "enhancement, Muscle", "setting": "15 min, 0.05 mmol/kg i.v.", "value": 1.26},
      {"measurement": "enhancement, Tumor", "setting": "15 min, 0.05 mmol/kg i.v.", "value": 1.97},
      {"measurement": "enhancement, Kidneys", "setting": "15 min, 0.1 mmol/kg i.v.", "value": 2.36},
      {"measurement": "enhancement, Liver", "setting": "15 min, 0.1 mmol/kg i.v.", "value": 1.61},
      {"measurement": "enhancement, Muscle", "setting": "15 min, 0.1 mmol/kg i.v.", "value": 1.30},
      {"measurement": "enhancement, Tumor", "setting": "15 min, 0.1 mmol/kg i.v.", "value": 2.40},
      {"measurement": "enhancement, Kidneys", "setting": "26 min, 0.1 mmol/kg i.v.", "value": 2.33},
      {"measurement": "enhancement, Liver", "setting": "26 min, 0.1 mmol/kg i.v.", "value": 1.45},
      {"measurement": "enhancement, Muscle", "setting": "26 min, 0.1 mmol/kg i.v.", "value": 1.37},
      {"measurement": "enhancement, Tumor", "setting": "26 min, 0.1 mmol/kg i.v.", "value": 2.41},
      {"measurement": "enhancement, Kidneys", "setting": "30 min, 0.05 mmol/kg i.v.", "value": 2.94},
      {"measurement": "enhancement, Liver", "setting": "30 min, 0.05 mmol/kg i.v.", "value": 1.42},
      {"measurement": "enhancement, Muscle", "setting": "30 min, 0.05 mmol/kg i.v.", "value": 1.22},
      {"measurement": "enhancement, Tumor", "setting": "30 min, 0.05 mmol/kg i.v.", "value": 1.71},
      {"measurement": "enhancement, Kidneys", "setting": "40 min, 0.1 mmol/kg i.v.", "value": 2.38},
      {"measurement": "enhancement, Liver", "setting": "40 min, 0.1 mmol/kg i.v.", "value": 1.51},
      {"measurement": "enhancement, Muscle", "setting": "40 min, 0.1 mmol/kg i.v.", "value": 1.23},
      {"measurement": "enhancement, Tumor", "setting": "40 min, 0.1 mmol/kg i.v.", "value": 2.34},
      {"measurement": "enhancement, Kidneys", "setting": "45 min, 0.05 mmol/kg i.v.", "value": 2.84},
      {"measurement": "enhancement, Liver", "setting": "45 min, 0.05 mmol/kg i.v.", "value": 1.49},
      {"measurement": "enhancement, Muscle", "setting": "45 min, 0.05 mmol/kg i.v.", "value": 1.12},
      {"measurement": "enhancement, Tumor", "setting": "45 min, 0.05 mmol/kg i.v.", "value": 1.71},
      {"measurement": "enhancement, Kidneys", "setting": "60 min, 0.05 mmol/kg i.v.", "value": 2.53},
      {"measurement": "enhancement, Liver", "setting": "60 min, 0.05 mmol/kg i.v.", "value": 1.52},
      {"measurement": "enhancement, Muscle", "setting": "60 min, 0.05 mmol/kg i.v.", "value": 1.10},
      {"measurement": "enhancement, Tumor", "setting": "60 min, 0.05 mmol/kg i.v.", "value": 1.50},
      {"measurement": "enhancement, Kidneys", "setting": "60 min, 0.1 mmol/kg i.v.", "value": 1.86},
      {"measurement": "enhancement, Liver", "setting": "60 min, 0.1 mmol/kg i.v.", "value": 1.36},
      {"measurement": "enhancement, Muscle", "setting": "60 min, 0.1 mmol/kg i.v.", "value": 1.23},
      {"measurement": "enhancement, Tumor", "setting": "60 min, 0.1 mmol/kg i.v.", "value": 2.34},
      {"measurement": "enhancement, Kidneys", "setting": "71 min, 0.1 mmol/kg i.v.", "value": 1.66},
      {"measurement": "enhancement, Liver", "setting": "71 min, 0.1 mmol/kg i.v.", "value": 1.62},
      {"measurement": "enhancement, Muscle", "setting": "71 min, 0.1 mmol/kg i.v.", "value": 1.17},
      {"measurement": "enhancement, Tumor", "setting": "71 min, 0.1 mmol/kg i.v.", "value": 2.36},
      {"measurement": "enhancement, Kidneys", "setting": "75 min, 0.05 mmol/kg i.v.", "value": 2.47},
      {"measurement": "enhancement, Liver", "setting": "75 min, 0.05 mmol/kg i.v.", "value": 1.50},
      {"measurement": "enhancement, Muscle", "setting": "75 min, 0.05 mmol/kg i.v.", "value": 1.04},
      {"measurement": "enhancement, Tumor", "setting": "75 min, 0.05 mmol/kg i.v.", "value": 1.71},
      {"measurement": "enhancement, Kidneys", "setting": "85 min, 0.1 mmol/kg i.v.", "value": 1.64},
      {"measurement": "enhancement, Liver", "setting": "85 min, 0.1 mmol/kg i.v.", "value": 1.48},
      {"measurement": "enhancement, Muscle", "setting": "85 min, 0.1 mmol/kg i.v.", "value": 1.32},
      {"measurement": "enhancement, Tumor", "setting": "85 min, 0.1 mmol/kg i.v.", "value": 2.39},
      {"measurement": "enhancement, Kidneys", "setting": "90 min, 0.05 mmol/kg i.v.", "value": 2.15},
      {"measurement": "enhancement, Liver", "setting": "90 min, 0.05 mmol/kg i.v.", "value": 1.53},
      {"measurement": "enhancement, Muscle", "setting": "90 min, 0.05 mmol/kg i.v.", "value": 1.11},
      {"measurement": "enhancement, Tumor", "setting": "90 min, 0.05 mmol/kg i.v.", "value": 1.62},
      {"measurement": "enhancement, Kidneys", "setting": "105 min, 0.05 mmol/kg i.v.", "value": 2.63},
      {"measurement": "enhancement, Liver", "setting": "105 min, 0.05 mmol/kg i.v.", "value": 1.63},
      {"measurement": "enhancement, Muscle", "setting": "105 min, 0.05 mmol/kg i.v.", "value": 1.07},
      {"measurement": "enhancement, Tumor", "setting": "105 min, 0.05 mmol/kg i.v.", "value": 1.75},
      {"measurement": "enhancement, Kidneys", "setting": "115 min, 0.1 mmol/kg i.v.", "value": 2.43},
      {"measurement": "enhancement, Liver", "setting": "115 min, 0.1 mmol/kg i.v.", "value": 1.62},
      {"measurement": "enhancement, Muscle", "setting": "115 min, 0.1 mmol/kg i.v.", "value": 1.23},
      {"measurement": "enhancement, Tumor", "setting": "115 min, 0.1 mmol/kg i.v.", "value": 2.38},
      {"measurement": "enhancement, Kidneys", "setting": "150 min, 0.1 mmol/kg i.v.", "value": 2.27},
      {"measurement": "enhancement, Liver", "setting": "150 min, 0.1 mmol/kg i.v.", "value": 1.48},
      {"measurement": "enhancement, Muscle", "setting": "150 min, 0.1 mmol/kg i.v.", "value": 1.17},
      {"measurement": "enhancement, Tumor", "setting": "150 min, 0.1 mmol/kg i.v.", "value": 2.31},
      {"measurement": "enhancement, Kidneys", "setting": "160 min, 0.05 mmol/kg i.v.", "value": 2.38},
      {"measurement": "enhancement, Liver", "setting": "160 min, 0.05 mmol/kg i.v.", "value": 1.47},
      {"measurement": "enhancement, Muscle", "setting": "160 min, 0.05 mmol/kg i.v.", "value": 1.07},
      {"measurement": "enhancement, Tumor", "setting": "160 min, 0.05 mmol/kg i.v.", "value": 1.69},
      {"measurement": "enhancement, Kidneys", "setting": "180 min, 0.05 mmol/kg i.v.", "value": 2.54},
      {"measurement": "enhancement, Liver", "setting": "180 min, 0.05 mmol/kg i.v.", "value": 1.57},
      {"measurement": "enhancement, Muscle", "setting": "180 min, 0.05 mmol/kg i.v.", "value": 1.02},
      {"measurement": "enhancement, Tumor", "setting": "180 min, 0.05 mmol/kg i.v.", "value": 1.67},
      {"measurement": "enhancement, Kidneys", "setting": "180 min, 0.1 mmol/kg i.v.", "value": 2.18},
      {"measurement": "enhancement, Liver", "setting": "180 min, 0.1 mmol/kg i.v.", "value": 1.59},
      {"measurement": "enhancement, Muscle", "setting": "180 min, 0.1 mmol/kg i.v.", "value": 1.22},
      {"measurement": "enhancement, Tumor", "setting": "180 min, 0.1 mmol/kg i.v.", "value": 2.38},
      {"measurement": "enhancement, Kidneys", "setting": "24 hours, 0.05 mmol/kg i.v.", "value": 1.17},
      {"measurement": "enhancement, Liver", "setting": "24 hours, 0.05 mmol/kg i.v.", "value": 0.93},
      {"measurement": "enhancement, Muscle", "setting": "24 hours, 0.05 mmol/kg i.v.", "value": 1.07},
      {"measurement": "enhancement, Tumor", "setting": "24 hours, 0.05 mmol/kg i.v.", "value": 1.31},
      {"measurement": "enhancement, Kidneys", "setting": "24 hours, 0.1 mmol/kg i.v.", "value": 0.94},
      {"measurement": "enhancement, Liver", "setting": "24 hours, 0.1 mmol/kg i.v.", "value": 1.33},
      {"measurement": "enhancement, Muscle", "setting": "24 hours, 0.1 mmol/kg i.v.", "value": 1.15},
      {"measurement": "enhancement, Tumor", "setting": "24 hours, 0.1 mmol/kg i.v.", "value": 2.02}
    ]}
  ]
}
